Data: patent US20170281578A1, “METHODS FOR TREATING METABOLIC DISTURBANCES” (THE BOARD OF REGENTS OF THE UNIVERSITY OF TEXAS SYSTEM, priority 2016, published 2017)

What was measured:
[1] = Crossover trial in pre- or Stage I hypertension: serum and 24-hour urinary K and Mg; assay type: in vivo, human; conditions: 4-week phases, 20 meq K bid; vs placebo phase, p<0.01
From the text: In the inventors' published study (Vongpatanasin, 2016), 30 patients with pre- (6 subjects) or Stage I (24 subjects) hypertension underwent a crossover trial, whereby they took KMgCit powder (20 meq K, 10 meq Mg and 37 meq citrate twice daily), KCit powder (20 meq K and 20 meq citrate twice daily), KCl powder (20 meq K and 20 meq chloride twice daily), or placebo (microcrystalline cellulose) for four weeks each. Among hypertensive subjects, 17 of 24 received antihypertensive treatment before study participation. All treated subjects received single-drug regimen before participation in the study (6 were on β blockers, 11 on angiotensin receptor blockers, or angiotensin-converting enzyme inhibitors, or calcium channel blockers), which was continued at the same dose throughout the study. None of the subjects had low serum Mg<1.8 mg/dl or serum K<3.5 meq/l or were on diuretic therapy.
Serum K and 24-hour urinary K excretion were increased during KCl, KCit, and KMgCit phases compared with placebo phase (p <0.01 vs placebo). Serum Mg was increased during KMgCit phase compared with placebo and KCl phases (both p<0.01); 24-hour urinary Mg excretion was increased during KMgCit phase compared with placebo and KCit (both p<0.01). 24-hour urinary Mg excretion was higher during KMgCit compared with KCl (p=0.017).

[2] = tested on: serum triglyceride; assay: Serum triglyceride in healthy adults on HCTZ with KMgCit or KCl; assay type: in vivo, human; conditions: from 1 month to 5 months of treatment; with HCTZ 50 mg/day; 40 meq K/day; p=0.09 between groups
Method: In the inventors' prior study (Odvina, & Pak, 2006), previously unpublished data on serum triglyceride were extracted. Eight healthy adult subjects took HCTZ 50 mg/day with KMgCit containing 40 meq K and 20 meq Mg/day for 6 months. Ten subjects received HCTZ 50 mg/day with KC1 40 meq K/day. Serum triglyceride declined by −32±41 mg/dL from 1 month to 5 months of treatment in the KMgCit group; It was underaltered from 1 month to 5 months of KCl treatment (0±31 mg/dL). The difference of the change in serum triglyceride between KMgCit and KCl groups was marginally significant (p=0.09). No baseline or 6 month data were available.

[3] = tested on: serum FGF23; assay: Crossover randomized trial in pre- or Stage I hypertension: serum FGF23; assay type: in vivo, human; conditions: 30 patients; after 4 weeks of treatment; 20 meq K twice daily; p=0.05
Method: FIG. 4 illustrates effect of KMgCit on serum FGF23.
In the inventors' study, 30 patients with pre- or Stage I hypertension participated in a crossover randomized trial, whereby they took KMgCit powder (20 meq K, 10 meq Mg and 37 meq citrate twice daily) or KCl powder (20 meq K and 20 meq chloride twice daily) for four weeks each. After 4 weeks of treatment, serum samples were analyzed fro FGF23.

[4] = tested on: RAA-SNS, serum aldosterone, fasting glucose, HOMA-IR; conditions: cited from earlier work

Compound	24-hour urinary K excretion [1]	Serum K [1]	Change in serum triglyceride [2]	Serum FGF23 [3]	CTD-induced activation of RAA-SNS ([4]; KCl supplementation)	Serum aldosterone ([4]; TZ-treated patients with hypertension, KCl supplementation)	CTD-induced fasting hyperglycemia and increased HOMA-IR ([4]; correction of hypokalemia by KCl)
O=C([O-])CC(O)(CC(=O)[O-])C(=O)[O-].[K+].[K+].[K+] [KCit powder, potassium citrate]	increased	increased					
[Cl-].[K+] [KCl powder, potassium chloride]	increased	increased	0 ± 31 mg/dL	53.1±22.2 Rel U/ml	unaffected	did not reduce	did not reverse
